Source: patent US6432913B1, “Polypeptide of protein p140 and DNAs encoding it” (Ono Pharmaceutical Co., Ltd., priority 1993, dated 2002)

Tests used:
[1] = test system: protein p140; test: Tyrosine phosphorylation of p140 in rat FaO hepatocytes; assay type: cell-based; details: for p140 tyrosine phosphorylation (band content of pp140): rat FaO cells, amylin 100 pM 24 hr before insulin where added
Procedure: (§1) Using the Dubecco's modified Eagle's medium (containing 10% BFS), various cells (1×10^5 cells/dish) were incubated at 37° C. under 5% CO2 atmosphere for 5˜8 days. The cells were skeletal muscle cells differentiated from skeletal muscle myoblasts. The differentiated cells previously treated in serum-free Dulbecco's modified Eagle's medium for 4 hr was incubated with and without amylin (100 pM) before further incubation for 24 hr. Cultures treated with insulin (100 nM) thereafter were incubated for a fixed interval (10 or 60 min). After the cultures were rinsed with ice-cold phosphate buffer, cells were lysed with phosphate buffer containing 0.5% octa (ethylene glycol) ether (C12E8). The pp140 was recovered by sepharobeads bound with phosphothyrosine antibody (Transformation Corp.) prior to elution and detection with phenyl phosphate and western blotting method, respectively. The band content of pp140 was determined by a densitometer using purified pp140 as the standard. In the Table 1, cultures were treated with amylin (100 pM) 24 hr before insulin (100 nM) was added.

[2] = test system: healthy rats; test: Amylin administration to healthy rats for 7 days; assay type: in vivo, rat; details: amylin 0.1 mg/kg, i.p., t.i.d.
From the text: (§2) These observations were accompanied by decreases in both incidences, glucose transporter 4 (Glut 4) quantity and synthesized glycogen content (less than 50% decrease compared to that of control group) with 1.7-fold increase in the blood glucose content.

[3] = test system: protein p140; test: Tyrosine phosphorylation of p140 in rat L6 cells (anti-phosphotyrosine recovery, western blot, densitometry); assay type: cell-based; details: for p140 tyrosine phosphorylation (band content of pp140): rat L6 cells, amylin 100 pM 24 hr before insulin where added
Procedure: as §1

[4] = test system: protein p140; test: Tyrosine phosphorylation of p140 in human A673 muscle cells; assay type: cell-based; details: for p140 tyrosine phosphorylation (band content of pp140): human A 678 cells, amylin 100 pM 24 hr before insulin where added
Procedure: as §1

[5] = test system: L6 cells; test: Glucose uptake in L6 cells with amylin administration; assay type: cell-based; details: L6 cells of rat skeletal muscle myoblasts
From the text: as §2

[6] = test system: protein p140; test: Tyrosine phosphorylation of p140 in human HepG2 hepatocytes; assay type: cell-based; details: for p140 tyrosine phosphorylation (band content of pp140): human HepG2 cells, amylin 100 pM 24 hr before insulin where added
[7] = test system: protein p140; test: Effects of various test compounds on p140 phosphorylation in rat L6 cells; assay type: cell-based; set-up: dose or concentration left out as unconfirmed
Procedure: Rat L6 cells (1×10^5 cells/dish) were incubated in the Dulbecco's modified Eagle's medium (containing 10% BFS) at 37° C. under 5% CO2 atmosphere for 8 days. The cells used were skeletal muscle myoblast-differentiated muscle cells. After treating the differentiated skeletal muscle cells in serum-free Dulbecco's modified Eagle's media for 4 hr, various test compounds (10 mM; except insulin,1 mM) were added before the cultures were further incubated for a fixed interval. After the cultures were rinsed with ice-cold phosphate buffer, cells were lysed with phosphate buffer containing 0.5% octa (ethylene glycol) ether (C12E8). The pp140 was recovered by cephalobeads bound with phosphotyrosine antibody (Transformation Corp.) prior to elution and detection with phenyl phosphate and western blotting method, respectively. The band content of pp140 was determined by a densitometer using purified pp140 as the standard.

[8] = test system: Rat L6 cells; test: Enhancement activity on glucose uptake (3H-2-deoxyglucose) in rat L6 cells; assay type: cell-based; details: 2 hr, 5 mM 3H-2-deoxyglucose, initial 3 min
Procedure: Rat L6 cells (1×10^5 cells/dish) were incubated in Dulbecco's modified Eagle's medium (containing 10% BFS) at 37° C. under 5% C02 atmosphere for 8 days. The cells used were skeletal muscle myoblast-differentiated skeletal muscle cells. After treating the differentiated skeletal muscle cells in serum-free Dulbecco's modified Eagle's medium for 2 hr, various test compounds (10 mM; except insulin,l mM) were added before the cultures were further incubated for a fixed interval of 2 hr. Cultures thereafter treated with Crebs-Ringer phosphate buffer (pH: 7.4) for 20 min were further incubated with 5 mM ^3H-2-deoxyglucose (0.05 mCi/ml). At the initial 3 min after incubation, the uptake radioactivity content in cells was determined with a liquid syntillation counter.

[9] = test system: streptozotocin (STZ)-induced diabetic rats; test: Effects of vitamin K5 on diabetes in streptozotocin (STZ) rats; assay type: in vivo, rat; details: vitamin K5 i.p. once daily for 3 consecutive days
Procedure: The diabetes model using streptozotocin (STZ) was established in male Wistar rats (STZ rats). After administering various intraperitoneal (i.p.) daily doses of vitamin K5 for 3 consecutive days in STZ rats (one administration per day), the glucose, neutral fat and cholesterol contents in blood were determined. Accordingly, STZ and normal rats were administered with the vehicle (physiological saline) at identical daily rate and duration prior to determination of similar hematic indices mentioned above. In addition, rats administered subcutaneously (s.c.) with insulin (8 U/kg) daily (one administration per day) for 3 consecutive days were used as positive controls.

Molecule	Amount of tyrosine phosphorylated p140 ([7]; 0 min) [copy/cell]	Amount of tyrosine phosphorylated p140 ([7]; 3 min) [copy/cell]	Amount of tyrosine phosphorylated p140 ([7]; 10 min) [copy/cell]	Amount of tyrosine phosphorylated p140 ([7]; 60 min) [copy/cell]	Activity on glucose uptake [8] [pmol/mg protein/min]	also measured
amylin						Effect on insulin-induced incidence of pp140 ([1]; rat hepatocytes, FaO cells): similarly confirmed; glucose transporter 4 (Glut 4) quantity [2]: decreases; increase in the blood glucose content [2]: 1.7 fold; insulin receptor population [2]: dramatic decreases; secreted insulin quantity [2]: dramatic decreases; synthesized glycogen content, decrease compared to control group [2]: less than 50%; Effect on insulin-induced incidence of pp140 ([3]; rat L6 cells incubated with insulin within 10 min): antagonized; Effect on insulin-induced incidence of pp140 ([4]; human muscle cells (A673 cells)): similarly confirmed; glucose uptake in the cells [5]: decreased glucose uptake; Effect on insulin-induced incidence of pp140 ([6]; human hepatocytes (HepG2 cells)): similarly confirmed
CC1=CC(=O)c2ccccc2C1=O [Vitamin K3, 2-methyl-1,4-naphthoquinone]	350	3650	1800	750	60.9	
O=C1NC(=S)SC1c1ccccc1 (stereo not shown) [5-phenylrhodanine]	350	1600	1250	650	76.8	
Insulin	350	1850	2600	1650	106.8	p140 tyrosine phosphorylation (band content of pp140) ([1]; insulin 100 nM for 10 min): 2000; p140 tyrosine phosphorylation (band content of pp140) ([1]; insulin 100 nM for 60 min): 1400; p140 tyrosine phosphorylation (band content of pp140) ([3]; insulin 100 nM for 10 min): 2400; p140 tyrosine phosphorylation (band content of pp140) ([3]; insulin 100 nM for 60 min): 1000; p140 tyrosine phosphorylation (band content of pp140) ([4]; insulin 100 nM for 10 min): 2500; p140 tyrosine phosphorylation (band content of pp140) ([4]; insulin 100 nM for 60 min): 1900; p140 tyrosine phosphorylation (band content of pp140) ([6]; insulin 100 nM for 10 min): 2100; p140 tyrosine phosphorylation (band content of pp140) ([6]; insulin 100 nM for 60 min): 1200
Cc1cc(N)c2ccccc2c1O [Vitamin K5, 4-amino-2-methyl-1-naphthol]	400	3850	2850	1600	67.5	cholesterol content in blood [9]: elicited recovery of changes; glucose content in blood [9]: elicited recovery of changes; neutral fat content in blood [9]: elicited recovery of changes
CC(C)CCOc1ccc(C=C2SC(=S)NC2=O)cc1 [5-(4-isoamyloxybenzylidene)rhodanine]	400	3200	2250	1600	98.4	
